# Experimental data from US9067974B2, “Polymyxin derivatives and uses thereof” (priority 2006, dated 2015).
# Legend:
# Assay in all cases: Well diffusion growth inhibition on LB agar plates (direct antibacterial activity)
# E. coli IH3080 (K1:O18) = type: cell-based, Escherichia coli
# How it was run: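 Growth inhibition of encapsulated E. coli IH3080 (K1:O18) was measured by well diffusion on LB agar plates. A suspension of about 10^8 cells/ml in 0.9% NaCl, made from an overnight LB agar culture, was spread over the plates and the excess removed. Once dry, five 2 mm wells were drilled per plate and test solutions added, with 0.9% NaCl as control. After 18 h at 37° C, inhibition zone diameters were measured and converted to surface areas in square mm.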
# [1] = test system: Acinetobacter baumannii ATCC 19606; type: cell-based; conditions: A. baumannii ATCC 19606
# Procedure: (§1) From an overnight-grown culture of IH3080 on LB agar, a suspension of approx. 10^8 cells/ml was prepared in 0.9% NaCl. Aliquots of this suspension were then pipetted on the agar plates and the plates were gently shaken to spread the suspension evenly on the entire surface of the plate. Thereafter, the unabsorbed part of the suspension was removed by using a Pasteur pipette. After the surface had dried, small wells (diameter, 2 mm) were drilled on the plates (five wells per plate) by using a sterile sharp-edged narrow metal tube, single-use pipette tip, and vacuum suction. Samples (4 μl and 10 μl) of the peptide solution in 0.9% NaCl (at concentrations of 1 μg/ml and 0.1 μg/ml) were then pipetted to the wells and the sample fluids were allowed to absorb. Controls included 0.9% NaCl solution without the compound to be tested. The plates were then incubated for 18 h at 37° C. whereafter the diameters of growth inhibition zones around each well were measured; the diameter of the well itself was not reduced. Finally, the diameters were converted to surface areas of growth inhibition (in square mm).
# (§2) Direct antibacterial activity of twelve NAB compounds against Acinetobacter baumannii ATCC 19606 and Pseudomonas aeruginosa ATCC 27853 was tested by using the susceptibility determination method described in Example 2. Five compounds (NAB7062, NAB734, NAB737, NAB739, and NAB740) had notable activity against A. baumannii. […] The antibacterial activity of NAB739 and NAB740 were as strong as or even stronger than that of polymyxin B.
# [2] = test system: Pseudomonas aeruginosa ATCC 27853; type: cell-based; conditions: Ps. aeruginosa ATCC 27853
# Procedure: as §1, §2
# E. coli ATCC25922 = type: cell-based, Escherichia coli
# Procedure: as §1, with “Samples (4 μl and 10 μl) of the peptide solution in 0.9% NaCl (at concentrations of 1 μg/ml and 0.1 μg/ml) were then pipetted to the wells and the sample fluids were allowed to absorb.” left out
# (§3) The susceptibility of eleven Gram-negative bacterial strains (nine different species) to NAB734 and polymyxin B was compared by using the susceptibility determination method described in Example 2. The strains included those belonging to the species of Serratia marcescens and Proteus mirabilis, both species generally known to be resistant to polymyxin. Furthermore, the susceptibility determination was also performed by using the Gram-positive bacterium, Staphylococcus aureus, also generally known to be polymyxin-resistant. Ten of the strains originated from ATCC (American Type Culture Collection, Manassas, Va., U.S.A.), and one from CCUG (Culture Collection of University of Gothenburg, Sweden). The source of E. coli IH3080 has been described in Example 2. Polymyxin B sulfate was from Sigma-Aldrich (St. Louis, Mo., USA).
# K. pneumoniae ATCC13883 = type: cell-based, Klebsiella pneumoniae
# Procedure: as §1, §3
# K. pneumoniae CCUG45421 = type: cell-based, Klebsiella pneumoniae
# Procedure: as §1, with “Samples (4 μl and 10 μl) of the peptide solution in 0.9% NaCl (at concentrations of 1 μg/ml and 0.1 μg/ml) were then pipetted to the wells and the sample fluids were allowed to absorb.” left out
# as §3
# K. oxytoca ATCC13182 = type: cell-based, Klebsiella oxytoca
# Procedure: as §1, §3
# E. cloacae ATCC23355 = type: cell-based, Enterobacter cloacae
# Procedure: as §1, §3
# C. freundii ATCC8090 = type: cell-based, Citrobacter freundii
# Procedure: as §1, §3
# S. marcescens ATCC8100 = type: cell-based, Serratia marcescens
# Procedure: as §1, §3
# P. mirabilis ATCC29906 = type: cell-based, Proteus mirabilis
# Procedure: as §1, §3
# S. aureus ATCC 25923 = type: cell-based, Staphylococcus aureus
# Procedure: as §1, with “Samples (4 μl and 10 μl) of the peptide solution in 0.9% NaCl (at concentrations of 1 μg/ml and 0.1 μg/ml) were then pipetted to the wells and the sample fluids were allowed to absorb.” left out
# as §3
substance,measurement,setting,value
Polymyxin B sulfate [reference compound],Antibacterial activity (growth inhibition area around a well),E. coli IH3080 (K1:O18); 4 μg of compound per well,95 square millimeters
same,Antibacterial activity (growth inhibition area around a well),E. coli IH3080 (K1:O18); 10 μg of compound per well,133 square millimeters
same,Antibacterial activity (growth inhibition area around a well),[1]; 4 μg per well,113 square millimeters
same,Antibacterial activity (growth inhibition area around a well),[1]; 10 μg per well,154 square millimeters
same,Antibacterial activity (growth inhibition area around a well),[2]; 4 μg per well,95 square millimeters
same,Antibacterial activity (growth inhibition area around a well),[2]; 10 μg per well,133 square millimeters
same,Antibacterial activity (growth inhibition area around a well),E. coli ATCC25922; 4 μg per well,95 square millimeters
same,Antibacterial activity (growth inhibition area around a well),E. coli ATCC25922; 10 μg per well,133 square millimeters
same,Antibacterial activity (growth inhibition area around a well),K. pneumoniae ATCC13883; 4 μg per well,79 square millimeters
same,Antibacterial activity (growth inhibition area around a well),K. pneumoniae ATCC13883; 10 μg per well,113 square millimeters
same,Antibacterial activity (growth inhibition area around a well),K. pneumoniae CCUG45421; 4 μg per well,95 square millimeters
same,Antibacterial activity (growth inhibition area around a well),K. pneumoniae CCUG45421; 10 μg per well,133 square millimeters
same,Antibacterial activity (growth inhibition area around a well),K. oxytoca ATCC13182; 4 μg per well,79 square millimeters
same,Antibacterial activity (growth inhibition area around a well),K. oxytoca ATCC13182; 10 μg per well,104 square millimeters
same,Antibacterial activity (growth inhibition area around a well),E. cloacae ATCC23355; 4 μg per well,95 square millimeters
same,Antibacterial activity (growth inhibition area around a well),E. cloacae ATCC23355; 10 μg per well,143 square millimeters
same,Antibacterial activity (growth inhibition area around a well),C. freundii ATCC8090; 4 μg per well,95 square millimeters
same,Antibacterial activity (growth inhibition area around a well),C. freundii ATCC8090; 10 μg per well,154 square millimeters
same,Antibacterial activity (growth inhibition area around a well),S. marcescens ATCC8100; 4 μg per well,0 square millimeters
same,Antibacterial activity (growth inhibition area around a well),S. marcescens ATCC8100; 10 μg per well,0 square millimeters
same,Antibacterial activity (growth inhibition area around a well),P. mirabilis ATCC29906; 4 μg per well,0 square millimeters
same,Antibacterial activity (growth inhibition area around a well),P. mirabilis ATCC29906; 10 μg per well,0 square millimeters
same,Antibacterial activity (growth inhibition area around a well),S. aureus ATCC 25923; 4 μg per well,0 square millimeters
same,Antibacterial activity (growth inhibition area around a well),S. aureus ATCC 25923; 10 μg per well,0 square millimeters
